From US20260053834A1, “COVALENT MODIFIERS OF AKT1 AND USES THEREOF” (Terremoto Biosciences, Inc., priority 2023, published 2026)

Key:
AKT2 = target: T1, AKT2 (Homo sapiens, UniProt P31751); assay: Live cell target engagement by NanoBRET competitive probe displacement, AKT2; type: binding; details: transfected HEK293 cells, 2 h at 37° C., read-out: AKT2 IC50: GeoMean IC50
T1 construct: expressed in transfected cells; host or cells: HEK293

[1] = tested on: LAPC4 prostate cancer cells, which express the AKT1 E17K allele; assay: Antiproliferative effects in LAPC4 cells (CellTiter Glo, 72 h); type: cell-based; details: Homo sapiens, LAPC4, 72 h, read-out: LAPC4 proliferation IC50: GeoMean IC50
How it was run: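 IC50 values come from Hill-equation fitting of luminescence (cellular ATP) after 72 h compound exposure. Treated wells held 1,000 cells each, with compound delivered as DMSO dilutions. Culture medium was IMDM plus 12% FBS.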

AKT1 WT = target: T2, AKT1 WT (Homo sapiens, UniProt P31749); assay: Live cell target engagement by NanoBRET competitive probe displacement, AKT1 WT; type: binding; details: transfected HEK293 cells, 2 h at 37° C., read-out: AKT1 WT IC50: GeoMean IC50
T2 construct: expressed in transfected cells; host or cells: HEK293

AKT1 E17K = target: T3, AKT1 E17K (Homo sapiens, UniProt P31749, E17K); assay: Live cell target engagement by NanoBRET competitive probe displacement, AKT1 E17K; type: binding; details: transfected HEK293 cells, 2 h at 37° C., read-out: AKT1 E17K IC50: GeoMean IC50
T3 construct: expressed in transfected cells; host or cells: HEK293
T3 sequence (P31749 whole entry E17K): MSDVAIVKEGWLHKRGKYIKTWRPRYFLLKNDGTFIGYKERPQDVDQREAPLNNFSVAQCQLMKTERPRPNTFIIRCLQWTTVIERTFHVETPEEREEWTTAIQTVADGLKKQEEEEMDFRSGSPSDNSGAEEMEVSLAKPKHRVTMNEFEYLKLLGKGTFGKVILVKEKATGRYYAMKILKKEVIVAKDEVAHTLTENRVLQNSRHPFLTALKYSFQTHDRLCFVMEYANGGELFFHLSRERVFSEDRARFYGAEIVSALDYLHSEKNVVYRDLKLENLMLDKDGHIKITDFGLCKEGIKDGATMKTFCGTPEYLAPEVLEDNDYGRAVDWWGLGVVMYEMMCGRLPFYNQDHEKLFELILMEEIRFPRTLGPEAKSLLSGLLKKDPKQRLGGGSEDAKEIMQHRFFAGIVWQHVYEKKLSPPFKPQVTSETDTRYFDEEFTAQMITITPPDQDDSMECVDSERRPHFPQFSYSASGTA

T1 sequence (P31751 whole entry): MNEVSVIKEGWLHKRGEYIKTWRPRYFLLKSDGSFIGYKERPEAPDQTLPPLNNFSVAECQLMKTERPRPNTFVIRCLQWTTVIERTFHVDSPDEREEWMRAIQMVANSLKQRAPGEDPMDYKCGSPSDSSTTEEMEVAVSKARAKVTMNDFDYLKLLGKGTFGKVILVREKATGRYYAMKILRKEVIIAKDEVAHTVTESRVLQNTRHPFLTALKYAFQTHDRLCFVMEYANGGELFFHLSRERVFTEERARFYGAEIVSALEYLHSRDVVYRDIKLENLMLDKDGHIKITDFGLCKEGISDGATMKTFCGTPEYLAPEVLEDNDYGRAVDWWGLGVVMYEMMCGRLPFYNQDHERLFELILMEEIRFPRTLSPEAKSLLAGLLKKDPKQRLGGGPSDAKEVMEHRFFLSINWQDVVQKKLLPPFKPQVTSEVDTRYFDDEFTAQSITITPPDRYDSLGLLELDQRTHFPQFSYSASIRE
T2 sequence (P31749 whole entry): as the sequence (P31749 whole entry E17K) above, with K17E counted along it

Row | Compound | IC50 (AKT2) | IC50 [1] | IC50 (AKT1 WT) | IC50 (AKT1 E17K)
1 | CS(=O)(=O)Nc1cc(-n2cccn2)nc2c1nc(-c1cccnc1N)n2-c1ccc2c(c1)CC[C@@H]2NC(=O)c1ccc(O)c(C=O)c1 [Example 232, N-[(1S)-5-[2-(2-aminopyridin-3-yl)-7-methanesulfonamido-5-(pyrazol-1-yl)imidazo[4,5-b]pyridin-3-yl]-2,3-dihydro-1H-inden-1-yl]-3-formyl-4-hydroxybenzamide] | ≥ 2000 nM | ≥ 2000 nM | ≥ 2000 nM | ≥ 2000 nM
2 | Nc1ncccc1-c1nc2c(-n3cn[nH]c3=O)cc(-n3cccn3)nc2n1-c1ccc2c(c1)CC[C@@H]2NC(=O)c1ccc(O)c(C=O)c1 [Example 233, N-[(1S)-5-[2-(2-aminopyridin-3-yl)-7-(3-oxo-2H-1,2,4-triazol-4-yl)-5-(pyrazol-1-yl)imidazo[4,5-b]pyridin-3-yl]-2,3-dihydro-1H-inden-1-yl]-3-formyl-4-hydroxybenzamide] | 100 to 2000 nM | 100 to 2000 nM | 100 to 2000 nM | 100 to 2000 nM
3 | Cc1cc(-n2nccn2)nc2c1nc(-c1cccnc1N)n2-c1ccc2c(c1)CC[C@@H]2NC(=O)c1ccc(O)c(C=O)c1 [Example 234, N-[(1S)-5-[2-(2-aminopyridin-3-yl)-7-methyl-5-(1,2,3-triazol-2-yl)imidazo[4,5-b]pyridin-3-yl]-2,3-dihydro-1H-inden-1-yl]-3-formyl-4-hydroxybenzamide] | 100 to 2000 nM | 10 to 100 nM | 10 to 100 nM | 10 to 100 nM
4 | Nc1ncccc1-c1nc2ccc(-n3cccn3)nc2n1-c1ccc2c(c1)CC[C@@H]2n1c(=O)[nH]c2cc(O)c(C=O)cc2c1=O [Example 238, 3-[(1S)-5-[2-(2-aminopyridin-3-yl)-5-(pyrazol-1-yl)imidazo[4,5-b]pyridin-3-yl]-2,3-dihydro-1H-inden-1-yl]-7-hydroxy-2,4-dioxo-1H-quinazoline-6-carbaldehyde] | ≥ 2000 nM | ≥ 2000 nM | ≥ 2000 nM | 100 to 2000 nM
5 | Nc1ncccc1-c1nc2ccc(-n3cccn3)nc2n1-c1ccc2c(c1)CC[C@@H]2NCc1cc(C=O)c(O)cc1F [Example 239, 5-({[(1S)-5-[2-(2-aminopyridin-3-yl)-5-(pyrazol-1-yl)imidazo[4,5-b]pyridin-3-yl]-2,3-dihydro-1H-inden-1-yl]amino}methyl)-4-fluoro-2-hydroxybenzaldehyde] | 100 to 2000 nM | ≥ 2000 nM | 10 to 100 nM | 10 to 100 nM
6 | Nc1ncccc1-c1nc2ccc(-c3ccn(C4CC4)n3)nc2n1-c1ccc2c(c1)CC[C@@H]2NC(=O)c1cc(C=O)c(O)cc1F [Example 240, N-[(1S)-5-[2-(2-aminopyridin-3-yl)-5-(1-cyclopropylpyrazol-3-yl)imidazo[4,5-b]pyridin-3-yl]-2,3-dihydro-1H-inden-1-yl]-2-fluoro-5-formyl-4-hydroxybenzamide] | 100 to 2000 nM | 10 to 100 nM | 10 to 100 nM | 10 to 100 nM
7 | Cn1ccc(-c2ccc3nc(-c4cccnc4N)n(-c4ccc5c(c4)CC[C@@H]5NC(=O)c4cc(C=O)c(O)cc4F)c3n2)n1 [Example 241, N-[(1S)-5-[2-(2-aminopyridin-3-yl)-5-(1-methylpyrazol-3-yl)imidazo[4,5-b]pyridin-3-yl]-2,3-dihydro-1H-inden-1-yl]-2-fluoro-5-formyl-4-hydroxybenzamide] | 100 to 2000 nM | 10 to 100 nM | 10 to 100 nM | < 10 nM
8 | Nc1ncccc1-c1nc2ccc(-n3cccn3)nc2n1-c1ccc2c(c1)CC[C@@H]2NC(=O)c1cc(C=O)c(O)c2scnc12 [Example 242, (S)—N-(5-(2-(2-aminopyridin-3-yl)-5-(1H-pyrazol-1-yl)-3H-imidazo[4,5-b]pyridin-3-yl)-2,3-dihydro-1H-inden-1-yl)-6-formyl-7-hydroxybenzo[d]thiazole-4-carboxamide] | ≥ 2000 nM | 100 to 2000 nM | 100 to 2000 nM | 10 to 100 nM
9 | Nc1ncccc1-c1nc2c(C(F)F)cc(-n3cccn3)nc2n1-c1ccc2c(c1)CC[C@@H]2NC(=O)c1ccc(O)c(C=O)c1 [Example 245, N-[(1S)-5-[2-(2-aminopyridin-3-yl)-7-(difluoromethyl)-5-(pyrazol-1-yl)imidazo[4,5-b]pyridin-3-yl]-2,3-dihydro-1H-inden-1-yl]-3-formyl-4-hydroxybenzamide] | 100 to 2000 nM | 10 to 100 nM | 10 to 100 nM | < 10 nM
10 | Nc1ncccc1-c1nc2ccc(-c3cc4n(n3)CCOC4)nc2n1-c1ccc2c(c1)CC[C@@H]2NC(=O)c1cc(C=O)c(O)cc1F [Example 246, N-[(1S)-5-[2-(2-aminopyridin-3-yl)-5-{4H,6H,7H-pyrazolo[3,2-c][1,4]oxazin-2-yl}imidazo[4,5-b]pyridin-3-yl]-2,3-dihydro-1H-inden-1-yl]-2-fluoro-5-formyl-4-hydroxybenzamide] | 100 to 2000 nM | 10 to 100 nM | 10 to 100 nM | 10 to 100 nM
11 | Nc1ncccc1-c1nc2ccc(-c3cc4n(n3)CCC4)nc2n1-c1ccc2c(c1)CC[C@@H]2NC(=O)c1cc(C=O)c(O)cc1F [Example 247, N-[(1S)-5-[2-(2-aminopyridin-3-yl)-5-{4H,5H,6H-pyrrolo[1,2-b]pyrazol-2-yl}imidazo[4,5-b]pyridin-3-yl]-2,3-dihydro-1H-inden-1-yl]-2-fluoro-5-formyl-4-hydroxybenzamide] | 100 to 2000 nM | 10 to 100 nM | 10 to 100 nM | 10 to 100 nM
12 | Nc1ncccc1-c1nc2cc(F)c(-n3cccn3)nc2n1-c1ccc2c(c1)CC[C@@H]2NC(=O)c1ccc(O)c(C=O)c1 [Example 248, (S)—N-(5-(2-(2-aminopyridin-3-yl)-6-fluoro-5-(1H-pyrazol-1-yl)-3H-imidazo[4,5-b]pyridin-3-yl)-2,3-dihydro-1H-inden-1-yl)-3-formyl-4-hydroxybenzamide] | 100 to 2000 nM | 100 to 2000 nM | 10 to 100 nM | 10 to 100 nM
13 | Nc1ncccc1-c1nc2ccc(-n3cccn3)nc2n1-c1ccc2c(c1)C1CC1C2NC(=O)c1ccc(O)c(C=O)c1 (stereo not shown) [Example 252, N-(3-(2-(2-aminopyridin-3-yl)-5-(1H-pyrazol-1-yl)-3H-imidazo[4,5-b]pyridin-3-yl)-1,1a,6,6a-tetrahydrocyclopropa[a]inden-6-yl)-3-formyl-4-hydroxybenzamide] | ≥ 2000 nM | 100 to 2000 nM | 100 to 2000 nM | 100 to 2000 nM

The remaining lines, values ahead:

Row | IC50 (AKT2) | IC50 [1] | IC50 (AKT1 WT) | IC50 (AKT1 E17K) | Compound
14 | 100 to 2000 nM | 100 to 2000 nM | 100 to 2000 nM | 10 to 100 nM | [N-]=[N+]=Nc1cc(O)c(C=O)cc1C(=O)N[C@H]1CCc2cc(-n3c(-c4cccnc4N)nc4ccc(-n5cccn5)nc43)ccc21 [Example 235, N-[(1S)-5-[2-(2-aminopyridin-3-yl)-5-(pyrazol-1-yl)imidazo[4,5-b]pyridin-3-yl]-2,3-dihydro-1H-inden-1-yl]-2-azido-5-formyl-4-hydroxybenzamide]
15 | 10 to 100 nM | 100 to 2000 nM | < 10 nM | 10 to 100 nM | COc1cc(F)c(C(=O)N[C@H]2CCc3cc(-n4c(-c5cccnc5N)nc5ccc(-n6cccn6)nc54)ccc32)cc1C=O [Example 236, N-[(1S)-5-[2-(2-aminopyridin-3-yl)-5-(pyrazol-1-yl)imidazo[4,5-b]pyridin-3-yl]-2,3-dihydro-1H-inden-1-yl]-2-fluoro-5-formyl-4-methoxybenzamide]
16 | 100 to 2000 nM | 100 to 2000 nM | 10 to 100 nM | 10 to 100 nM | Nc1cc(O)c(C=O)cc1C(=O)N[C@H]1CCc2cc(-n3c(-c4cccnc4N)nc4ccc(-n5cccn5)nc43)ccc21 [Example 237, 2-amino-N-[(1S)-5-[2-(2-aminopyridin-3-yl)-5-(pyrazol-1-yl)imidazo[4,5-b]pyridin-3-yl]-2,3-dihydro-1H-inden-1-yl]-5-formyl-4-hydroxybenzamide]
17 | ≥ 2000 nM | ≥ 2000 nM | ≥ 2000 nM | ≥ 2000 nM | N#Cc1cc(O)c(C=O)cc1C(=O)N[C@H]1CCc2cc(-n3c(-c4cccnc4N)nc4ccc(-n5cccn5)nc43)ccc21 [Example 250, (S)—N-(5-(2-(2-aminopyridin-3-yl)-5-(1H-pyrazol-1-yl)-3H-imidazo[4,5-b]pyridin-3-yl)-2,3-dihydro-1H-inden-1-yl)-2-cyano-5-formyl-4-hydroxybenzamide]
18 | 100 to 2000 nM | 100 to 2000 nM | 100 to 2000 nM | 100 to 2000 nM | Nc1ncccc1-c1nc2ccc(-n3cccn3)nc2n1-c1ccc2c(c1)CC[C@@H]2NC(=O)c1cc(C=O)c(O)c2ncoc12 [Example 253, N-[(1S)-5-[2-(2-aminopyridin-3-yl)-5-(pyrazol-1-yl)imidazo[4,5-b]pyridin-3-yl]-2,3-dihydro-1H-inden-1-yl]-5-formyl-4-hydroxy-1,3-benzoxazole-7-carboxamide]
19 | 100 to 2000 nM | 100 to 2000 nM | 100 to 2000 nM | 10 to 100 nM | Nc1ncccc1-c1nc2ccc(-n3cccn3)nc2n1-c1ccc2c(c1)CC[C@@H]2NC(=O)c1ccc(O)c(C=O)c1F [Example 255, (S)—N-(5-(2-(2-aminopyridin-3-yl)-5-(1H-pyrazol-1-yl)-3H-imidazo[4,5-b]pyridin-3-yl)-2,3-dihydro-1H-inden-1-yl)-2-fluoro-3-formyl-4-hydroxybenzamide]
